Reference: PubChem BioAssay (NCI)
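Dose response: 5 concentrations. Exposure: 48 h. Format: 96-well plates. Endpoint: linear interpolation; highest concentration if not reached. GI50 = concentration required for 50% inhibition of growth. Definition used: TGI = concentration required for complete inhibition of growth.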

Assays:
Experiment in all cases: growth of human tumour cells (NCI), 48 h
[1] = system: SK-MEL-2 melanoma
[2] = system: NCI/ADR-RES ovarian
[3] = system: CCRF-CEM leukemia
[4] = system: KM12 colon
[5] = system: SW-620 colon
[6] = system: MALME-3M melanoma
[7] = system: MDA-MB-231 breast
[8] = system: HOP-62 NSCLC
[9] = system: SNB-75 CNS
[10] = system: LOX IMVI melanoma

Row | Compound | GI50 [1] [µM] | TGI [1] [µM] | GI50 [2] [nM] | TGI [2] [µM] | GI50 [3] [nM] | TGI [3] [µM] | GI50 [4] [nM] | TGI [4] [µM] | GI50 [5] [µM] | TGI [5] [µM] | GI50 [6] [nM] | TGI [6] [µM] | GI50 [7] [nM] | TGI [7] [µM] | GI50 [8] [µM] | TGI [8] [µM] | GI50 [9] [nM] | TGI [9] [µM] | GI50 [10] [nM] | TGI [10] [µM]
1 | C=CCC(N[C@@H](CO)c1ccccc1)c1cn(Cc2ccccc2Cl)c(=O)n(Cc2ccccc2Cl)c1=O (stereo partly specified) | > 100 | > 100 | > 100000 | > 100 | > 100000 | > 100 | > 100000 | > 100 | > 100 | > 100 | > 100000 | > 100 | 78000 | > 100 | > 100 | > 100 | 79300 | > 100 | > 100000 | > 100
2 | COc1ccc(/C=C(/C(=O)N2CCN(c3ccccc3)CC2)c2cc(OC)c(OC)c(OC)c2)cc1N | 0.725 | > 100 | 623 | > 100 | 301 | > 100 | 423 | > 100 | 0.401 | > 100 | 12200 | > 100 | 411 | 24.4 | 0.429 | > 100 | 220 | > 100 | 696 | > 100
3 | O=C1c2[nH]cc(CNC3CN4CCC3CC4)c2C(=O)c2c1c(O)c1ccccc1c2O (stereo unspecified) | 4.02 | 18.6 | 2080 | 6.4 | 141 | 1.56 | 672 | 2.32 | 0.117 | 0.399 | 2780 | 7.14 | 1410 | 3.09 | 1.11 | 2.43 | 16200 | 44.6 | 1050 | 2.31
4 | CC[C@H](NC(=O)[C@H]1CCCCN1C)C(=O)N(C)[C@H](C[C@@H](OC(C)=O)c1nc(C(=O)N[C@@H](Cc2ccccc2)C[C@H](C)C(=O)O)cs1)C(C)C | 0.00145 | > 14.3 | 78.5 | > 14.3 | 3.83 | > 14.3 | 1.92 | > 14.3 | 0.00398 | > 14.3 | 5.38 | > 14.3 | 8 | > 14.3 | 0.00673 | > 14.3 | 5.28 | > 14.3 | 10.3 | > 14.3
5 | Cc1cc(Cl)cc2c(N=Nc3ccc(S(N)(=O)=O)cc3)c(O)[nH]c12 | > 25 | > 25 | > 25000 | > 25 | > 25000 | > 25 | > 25000 | > 25 | > 25 | > 25 | > 25000 | > 25 | > 25000 | > 25 | > 25 | > 25 | > 15600 | > 25 | > 25000 | > 25
6 | CCOC(=O)C1=C(C)N=c2s/c(=C\c3ccccc3O)c(=O)n2C1c1ccc(OC)c2ccccc12 (stereo unspecified) | 32.3 | 87.1 | 7920 | 43.5 | 23200 | > 100 | 9660 | > 100 | 16.6 | > 100 | 4140 | 19 | 2690 | 6.79 | 4.65 | 14.6 | 2010 | 6.11 | 2440 | 5.65
7 | Cc1ccc(Cl)cc1Nc1nc(C(F)(F)F)ccc1C(=O)N/N=C/c1cccnc1 | 3.74 | 15.3 | 3210 | 20.3 | 4140 | > 100 | 3190 | 11.8 | 3.32 | 14.9 | 1270 | 8.27 | 2080 | 17.4 | 4.28 | 18.5 | 4930 | 19.5 | 1520 | 13.6
8 | CN(C)c1ccc(/C=C/c2ccnc3c(O)cccc23)cc1 | 0.301 | 11 | 312 | – | 333 | > 100 | 399 | > 100 | 0.397 | > 100 | 847 | 9.43 | 434 | > 100 | 0.469 | > 58.9 | 372 | 36.6 | 313 | > 100
9 | CN1CCC(COc2cnc(-c3cccc(Cn4nc(-c5cccc(C#N)c5)ccc4=O)c3)nc2)CC1 | 6.66 | 15.1 | 7410 | 28.1 | 2560 | 19.6 | 4360 | 16.5 | 3.55 | 31.3 | 1830 | 3.63 | 2000 | 4.43 | 4.24 | 14.2 | 1810 | 5.28 | 1930 | 4.09
10 | OC(c1cc(-c2cccc(Cl)c2)nc2ccccc12)C1CCCCN1 (stereo unspecified) | 2.18 | 4.02 | 1990 | 4.02 | 2080 | 4.74 | 1790 | 3.2 | – | – | 2050 | 3.77 | 1660 | 3.37 | 1.78 | 3.32 | 1380 | 3.23 | 1760 | 3.36
11 | C=C1CC2CCCC12C=O (stereo unspecified) | – | – | – | > 10 | – | > 10 | – | > 10 | – | > 10 | – | > 10 | – | > 10 | – | > 10 | – | > 10 | – | > 10
12 | O=C(COc1ccc(/C=C2\COc3ccccc3C2=O)cc1)Nc1nccs1 | 10.8 | 24 | 24700 | > 100 | 1610 | 6.39 | 3280 | 10.5 | 3.22 | 10.2 | 16300 | 36.2 | 17800 | 60 | 16.8 | 33.1 | 5040 | 22 | 2640 | 7.33
